Test results as given in ChEMBL document CHEMBL3608278 (J Med Chem, 2015).

Experiments:
[1] = biological target: T1, Potassium voltage-gated channel subfamily A member 3 (Homo sapiens, UniProt P22001); set-up: species or system Blood
[2] = biological target: T1, Potassium voltage-gated channel subfamily A member 3; format: cell-based, CHO-K1
[3] = biological target: T1, Potassium voltage-gated channel subfamily A member 3; test: cell-based; set-up: species or system Blood

T1 sequence (P22001 whole entry): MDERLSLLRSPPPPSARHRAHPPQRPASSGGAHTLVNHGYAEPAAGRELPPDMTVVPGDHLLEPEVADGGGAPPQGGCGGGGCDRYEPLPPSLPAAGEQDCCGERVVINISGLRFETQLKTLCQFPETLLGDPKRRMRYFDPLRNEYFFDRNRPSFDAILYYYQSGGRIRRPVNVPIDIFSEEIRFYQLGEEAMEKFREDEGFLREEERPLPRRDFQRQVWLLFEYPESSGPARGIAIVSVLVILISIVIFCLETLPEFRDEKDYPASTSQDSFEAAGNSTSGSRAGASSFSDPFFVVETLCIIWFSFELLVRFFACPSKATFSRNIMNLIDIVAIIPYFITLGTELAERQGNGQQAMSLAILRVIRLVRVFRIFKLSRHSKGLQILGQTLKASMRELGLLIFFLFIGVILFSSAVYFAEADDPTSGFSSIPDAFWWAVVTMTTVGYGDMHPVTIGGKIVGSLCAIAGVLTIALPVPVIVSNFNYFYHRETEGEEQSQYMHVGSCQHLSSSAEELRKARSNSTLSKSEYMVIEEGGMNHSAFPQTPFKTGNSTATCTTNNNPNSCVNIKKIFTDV

## CC[C@H](C)[C@@H]1NC(=O)[C@@H](NC(=O)[C@H](CCC(=O)O)NC(=O)[C@@H](N)CCCNC(=N)N)CSSC[C@@H](C(=O)O)NC(=O)[C@H]([C@@H](C)O)NC(=O)CNC(=O)[C@@H]2CSSC[C@@H]3NC(=O)[C@H](CCC(N)=O)NC(=O)[C@H](Cc4ccccc4)NC(=O)[C@H](C)NC(=O)[C@H]([C@@H](C)O)NC(=O)[C@H](CSSC[C@H](NC(=O)[C@H](Cc4ccccc4)NC(=O)[C@H](CO)NC(=O)[C@H](CC(C)C)NC(=O)[C@H](CCCNC(=N)N)NC(=O)[C@H](Cc4ccc(O)cc4)NC(=O)[C@H](CCCCN)NC(=O)[C@H](CCSC)NC(=O)[C@H](CO)NC(=O)[C@H](Cc4cnc[nH]4)NC(=O)[C@H](CCCCN)NC3=O)C(=O)N[C@@H](CCCNC(=N)N)C(=O)N[C@@H](CCCCN)C(=O)N[C@@H]([C@@H](C)O)C(=O)N2)NC(=O)[C@H](CCCNC(=N)N)NC(=O)[C@H](CO)NC(=O)[C@H](CCCCN)NC(=O)[C@@H]2CCCN2C(=O)[C@H]([C@@H](C)CC)NC(=O)[C@H]([C@@H](C)O)NC(=O)[C@H](CC(=O)O)NC1=O
[1]
  IC50: 39 pM
[2]
  IC50: 95 pM
[3]
  IC50: 29 pM

## CC[C@H](C)[C@@H]1NC(=O)[C@H]([C@@H](C)O)NC(=O)[C@H](CC(=O)O)NC(=O)[C@H](CCC(=O)O)NC(=O)[C@@H](NC(=O)[C@H](CO)NC(=O)[C@@H](N)CCCNC(=N)N)CSSC[C@@H](C(=O)O)NC(=O)[C@H]([C@@H](C)O)NC(=O)CNC(=O)[C@@H]2CSSC[C@@H]3NC(=O)[C@H](CCC(N)=O)NC(=O)[C@H](Cc4ccccc4)NC(=O)[C@H](C)NC(=O)[C@H]([C@@H](C)O)NC(=O)[C@H](CSSC[C@H](NC(=O)[C@H](Cc4ccccc4)NC(=O)[C@H](CO)NC(=O)[C@H](CC(C)C)NC(=O)[C@H](CCCNC(=N)N)NC(=O)[C@H](Cc4ccc(O)cc4)NC(=O)[C@H](CCCCN)NC(=O)[C@H](CCSC)NC(=O)[C@H](CO)NC(=O)[C@H](Cc4cnc[nH]4)NC(=O)[C@H](CCCCN)NC3=O)C(=O)N[C@@H](CCCNC(=N)N)C(=O)N[C@@H](CCCCN)C(=O)N[C@@H]([C@@H](C)O)C(=O)N2)NC(=O)[C@H](CCCNC(=N)N)NC(=O)[C@H](CO)NC(=O)[C@H](CCCCN)NC(=O)[C@@H]2CCCN2C1=O
[1]
  IC50: 50 pM
[2]
  IC50: 75 pM
[3]
  IC50: 31 pM

## CC[C@H](C)[C@@H]1NC(=O)[C@@H](NC(=O)[C@H](CO)NC(=O)[C@@H](N)CCCNC(=N)N)CSSC[C@@H](C(=O)O)NC(=O)[C@H]([C@@H](C)O)NC(=O)CNC(=O)[C@@H]2CSSC[C@@H]3NC(=O)[C@H](CCC(N)=O)NC(=O)[C@H](Cc4ccccc4)NC(=O)[C@H](C)NC(=O)[C@H]([C@@H](C)O)NC(=O)[C@H](CSSC[C@H](NC(=O)[C@H](Cc4ccccc4)NC(=O)[C@H](CO)NC(=O)[C@H](CC(C)C)NC(=O)[C@H](CCCNC(=N)N)NC(=O)[C@H](Cc4ccc(O)cc4)NC(=O)[C@H](CCCCN)NC(=O)[C@H](CCSC)NC(=O)[C@H](CO)NC(=O)[C@H](Cc4cnc[nH]4)NC(=O)[C@H](CCCCN)NC3=O)C(=O)N[C@@H](CCCNC(=N)N)C(=O)N[C@@H](CCCCN)C(=O)N[C@@H]([C@@H](C)O)C(=O)N2)NC(=O)[C@H](CCCNC(=N)N)NC(=O)[C@H](CO)NC(=O)[C@H](CCCCN)NC(=O)[C@@H]2CCCN2C(=O)[C@H]([C@@H](C)CC)NC(=O)[C@H]([C@@H](C)O)NC(=O)[C@H](CCC(=O)O)NC1=O
[1]
  IC50: > 24600 pM
[2]
  IC50: > 3330 pM
[3]
  IC50: 16900 pM
